According to patent US20240238314A1, “TREATMENT OF ESSENTIAL TREMOR” (Sage Therapeutics, Inc., priority 2021, published 2024):

Test system: individuals with essential tremor
Assay: Phase 2 study, Compound 1 60 mg once daily for 28 days: TETRAS ADL total score
Format: in vivo, human
From the text: As used herein, “The Essential Tremor Rating Assessment Scale (TETRAS) activities of daily living (ADL) subscale total score” refers to an assessment scale for essential tremor developed by The Tremor Research Group (Elble, R. J., J. Neurol. Neuromedicine 1(4):34-38 (2016); Elble, R. J. et. al., Mov. Disord. 27(12); 1567-1569 (2012)). The TETRAS ADL subscale includes 12 metrics or characteristics, wherein each metric or characteristic is scored 0, 1, 2, 3, or 4 based on the severity of the characteristic present in the subject. Scores for each of the 12 characteristics are then added to give a total score of no greater than 48. The 12 characteristics scored in the TETRAS ADL subscale total score include:
Participants were 18 to 80 years of age, inclusive, diagnosed of ET of at least 3 years duration with scores of at least 1.5 for each of the six items that comprised the combined total upper limb TETRAS (total performance subscale part 4) with the total score for the dominant upper limb (the sum of the 3 items for either the right or left upper limb, whichever is dominant) being at least 5.5, at both Screening and predose on Day 1.
Participants were randomized to receive Compound 1 60 mg or placebo once daily in the morning on a 1:1 basis. If participants reported a TEAE considered by investigator to be related to Compound 1 and not tolerable, investigator might reduce the dose of Compound 1 from 60 mg in 15 mg decrements (i.e., 60 mg, to 45 mg, to 30 mg), as medically appropriate. If intolerable TEAEs persist at the 30 mg dose, Compound 1 was permanently stopped.
This study included a Screening Period of up to 28 days, a 29-day treatment period consisting of 28 days of dosing with the end of treatment visit intended to be on Day 29 at trough, and a 14-day follow-up period relative to final dose. Study patients were not taking other medications for essential tremor during the 28-day treatment period.
Similarly, an MMRM was be used for the analysis of the following variables: changes from baseline in TETRAS performance subscale part 4, 6, 7, and 8 combined score, and TETRAS ADL score. For each model, the comparison of interest was between Compound 1 tablets and matching placebo at the 15-day time point. Model-based point estimates (i.e., LS means), 95% confidence intervals, and p-values were reported.

[1] = Baseline TETRAS ADL < 28, Day 29
[2] = Baseline TETRAS ADL ≥ 28, Day 29

## COC[C@@]1(O)CC[C@H]2[C@@H](CC[C@@H]3[C@@H]2CC[C@]2(C)[C@@H](C(=O)Cn4nnc(C)n4)CC[C@@H]32)C1 [Compound 1]
[1]
  LSMean (SE) CFB in TETRAS ADL total score: −2.84
  LSMean Difference (CI) vs placebo in CFB in TETRAS ADL total score: −1.17
  Mean (SD) % CFB in TETRAS ADL total score: −16.52%
[2]
  LSMean (SE) CFB in TETRAS ADL total score: −5.67
  Mean (SD) % CFB in TETRAS ADL total score: −18.10%
Full Analysis Set, Day 8
  Model-based LSMean (SE) change from baseline in TETRAS ADL total score: −5.34 (0.845)
Full Analysis Set, Day 15
  LSMean difference vs placebo in change from baseline in TETRAS ADL total score: −2.95
  Model-based LSMean (SE) change from baseline in TETRAS ADL total score: −5.43 (0.945)
Full Analysis Set, Day 22
  LSMean difference vs placebo in change from baseline in TETRAS ADL total score: −2.56
  Model-based LSMean (SE) change from baseline in TETRAS ADL total score: −5.24 (0.904)
Full Analysis Set, Day 29
  Mean (SD) % CFB in TETRAS ADL total score: −17.4%
  Model-based LSMean (SE) change from baseline in TETRAS ADL total score: −4.24 (0.940)
Full Analysis Set, Day 29, listed as Cmpd 1
  LSMean difference vs placebo in change from baseline in TETRAS ADL total score: −1.37
Full Analysis Set, Day 42
  LSMean difference vs placebo in change from baseline in TETRAS ADL total score: 1.13
  Model-based LSMean (SE) change from baseline in TETRAS ADL total score: −2.14 (0.905)
